ChEMBL document CHEMBL5338788, “Discovery of a New-Generation S-Adenosylmethionine-Noncompetitive Covalent Inhibitor Targeting the Lysine Methyltransferase Enhancer of Zeste Homologue 2” (J Med Chem, 2023)
Active and inactive are the calls of the source. No cut-off for these calls is given here.

Columns and labels:
[1] = molecular target: T1, Histone-lysine N-methyltransferase 2A (Homo sapiens, UniProt Q03164); experiment: Inhibition of MLL1 (unknown origin) using histone peptide/SAM as substrate at 10 uM by HTRF assay
[2] = molecular target: T2, Histone-lysine N-methyltransferase, H3 lysine-36 specific (Homo sapiens, UniProt Q96L73); experiment: Inhibition of NSD1 (unknown origin) using histone peptide/SAM as substrate at 10 uM by AlphaLisa assay
WSUDLCL2 = experiment: Antiproliferative activity against human WSUDLCL2 cells expressing wild-type EZH2 assessed as inhibition of cell proliferation incubated for 6 days by CCK8 assay; assay type: functional, cell-based; details: WSUDLCL2, 144 h
[3] = molecular target: T3, Protein arginine N-methyltransferase 5 (Homo sapiens, UniProt O14744); experiment: Inhibition of PRMT5 (unknown origin) using histone peptide/SAM as substrate at 10 uM by AlphaLisa assay
T3 sequence (O14744 whole entry): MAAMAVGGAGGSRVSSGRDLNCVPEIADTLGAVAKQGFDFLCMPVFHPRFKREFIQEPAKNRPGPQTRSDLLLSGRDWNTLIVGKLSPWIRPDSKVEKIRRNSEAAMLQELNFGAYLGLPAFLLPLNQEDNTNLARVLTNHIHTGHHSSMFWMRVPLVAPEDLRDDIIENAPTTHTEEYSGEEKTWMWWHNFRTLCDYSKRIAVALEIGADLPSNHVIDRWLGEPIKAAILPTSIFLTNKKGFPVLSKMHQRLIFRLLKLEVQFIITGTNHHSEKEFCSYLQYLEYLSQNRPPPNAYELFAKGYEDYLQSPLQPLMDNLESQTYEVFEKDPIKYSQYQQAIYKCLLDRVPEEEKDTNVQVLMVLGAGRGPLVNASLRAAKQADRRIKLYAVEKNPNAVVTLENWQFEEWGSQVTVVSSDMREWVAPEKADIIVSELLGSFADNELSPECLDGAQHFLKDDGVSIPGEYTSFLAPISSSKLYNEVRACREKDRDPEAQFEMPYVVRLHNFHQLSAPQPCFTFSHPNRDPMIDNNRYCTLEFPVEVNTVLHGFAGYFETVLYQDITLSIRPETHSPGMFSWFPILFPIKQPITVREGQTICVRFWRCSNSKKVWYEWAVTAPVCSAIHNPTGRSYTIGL

SU-DHL-2 = experiment: Antiproliferative activity against human SUDHL2 cells expressing EZH2 mutant assessed as inhibition of cell proliferation incubated for 6 days by CCK8 assay; assay type: functional, cell-based; details: SU-DHL-2, 144 h
Pfeiffer [4] = experiment: Downregulation of H2K27me3 level in human Pfeiffer cells incubated for 48 to 96 hrs by Western blot analysis; assay type: functional, cell-based; details: dose 0.05-1 µM, time 48-96 hrs
KARPAS-422 [5] = experiment: Downregulation of H2K27me3 level in human KARPAS-422 cells incubated for 48 to 96 hrs by Western blot analysis; assay type: functional, cell-based; details: dose 0.05-1 µM, time 48-96 hrs
[6] = molecular target: T4, Histone-lysine N-methyltransferase 2B (Homo sapiens, UniProt Q9UMN6); experiment: Inhibition of MLL4 (unknown origin) using histone peptide/SAM as substrate at 10 uM by HTRF assay
T4 sequence (Q9UMN6 whole entry): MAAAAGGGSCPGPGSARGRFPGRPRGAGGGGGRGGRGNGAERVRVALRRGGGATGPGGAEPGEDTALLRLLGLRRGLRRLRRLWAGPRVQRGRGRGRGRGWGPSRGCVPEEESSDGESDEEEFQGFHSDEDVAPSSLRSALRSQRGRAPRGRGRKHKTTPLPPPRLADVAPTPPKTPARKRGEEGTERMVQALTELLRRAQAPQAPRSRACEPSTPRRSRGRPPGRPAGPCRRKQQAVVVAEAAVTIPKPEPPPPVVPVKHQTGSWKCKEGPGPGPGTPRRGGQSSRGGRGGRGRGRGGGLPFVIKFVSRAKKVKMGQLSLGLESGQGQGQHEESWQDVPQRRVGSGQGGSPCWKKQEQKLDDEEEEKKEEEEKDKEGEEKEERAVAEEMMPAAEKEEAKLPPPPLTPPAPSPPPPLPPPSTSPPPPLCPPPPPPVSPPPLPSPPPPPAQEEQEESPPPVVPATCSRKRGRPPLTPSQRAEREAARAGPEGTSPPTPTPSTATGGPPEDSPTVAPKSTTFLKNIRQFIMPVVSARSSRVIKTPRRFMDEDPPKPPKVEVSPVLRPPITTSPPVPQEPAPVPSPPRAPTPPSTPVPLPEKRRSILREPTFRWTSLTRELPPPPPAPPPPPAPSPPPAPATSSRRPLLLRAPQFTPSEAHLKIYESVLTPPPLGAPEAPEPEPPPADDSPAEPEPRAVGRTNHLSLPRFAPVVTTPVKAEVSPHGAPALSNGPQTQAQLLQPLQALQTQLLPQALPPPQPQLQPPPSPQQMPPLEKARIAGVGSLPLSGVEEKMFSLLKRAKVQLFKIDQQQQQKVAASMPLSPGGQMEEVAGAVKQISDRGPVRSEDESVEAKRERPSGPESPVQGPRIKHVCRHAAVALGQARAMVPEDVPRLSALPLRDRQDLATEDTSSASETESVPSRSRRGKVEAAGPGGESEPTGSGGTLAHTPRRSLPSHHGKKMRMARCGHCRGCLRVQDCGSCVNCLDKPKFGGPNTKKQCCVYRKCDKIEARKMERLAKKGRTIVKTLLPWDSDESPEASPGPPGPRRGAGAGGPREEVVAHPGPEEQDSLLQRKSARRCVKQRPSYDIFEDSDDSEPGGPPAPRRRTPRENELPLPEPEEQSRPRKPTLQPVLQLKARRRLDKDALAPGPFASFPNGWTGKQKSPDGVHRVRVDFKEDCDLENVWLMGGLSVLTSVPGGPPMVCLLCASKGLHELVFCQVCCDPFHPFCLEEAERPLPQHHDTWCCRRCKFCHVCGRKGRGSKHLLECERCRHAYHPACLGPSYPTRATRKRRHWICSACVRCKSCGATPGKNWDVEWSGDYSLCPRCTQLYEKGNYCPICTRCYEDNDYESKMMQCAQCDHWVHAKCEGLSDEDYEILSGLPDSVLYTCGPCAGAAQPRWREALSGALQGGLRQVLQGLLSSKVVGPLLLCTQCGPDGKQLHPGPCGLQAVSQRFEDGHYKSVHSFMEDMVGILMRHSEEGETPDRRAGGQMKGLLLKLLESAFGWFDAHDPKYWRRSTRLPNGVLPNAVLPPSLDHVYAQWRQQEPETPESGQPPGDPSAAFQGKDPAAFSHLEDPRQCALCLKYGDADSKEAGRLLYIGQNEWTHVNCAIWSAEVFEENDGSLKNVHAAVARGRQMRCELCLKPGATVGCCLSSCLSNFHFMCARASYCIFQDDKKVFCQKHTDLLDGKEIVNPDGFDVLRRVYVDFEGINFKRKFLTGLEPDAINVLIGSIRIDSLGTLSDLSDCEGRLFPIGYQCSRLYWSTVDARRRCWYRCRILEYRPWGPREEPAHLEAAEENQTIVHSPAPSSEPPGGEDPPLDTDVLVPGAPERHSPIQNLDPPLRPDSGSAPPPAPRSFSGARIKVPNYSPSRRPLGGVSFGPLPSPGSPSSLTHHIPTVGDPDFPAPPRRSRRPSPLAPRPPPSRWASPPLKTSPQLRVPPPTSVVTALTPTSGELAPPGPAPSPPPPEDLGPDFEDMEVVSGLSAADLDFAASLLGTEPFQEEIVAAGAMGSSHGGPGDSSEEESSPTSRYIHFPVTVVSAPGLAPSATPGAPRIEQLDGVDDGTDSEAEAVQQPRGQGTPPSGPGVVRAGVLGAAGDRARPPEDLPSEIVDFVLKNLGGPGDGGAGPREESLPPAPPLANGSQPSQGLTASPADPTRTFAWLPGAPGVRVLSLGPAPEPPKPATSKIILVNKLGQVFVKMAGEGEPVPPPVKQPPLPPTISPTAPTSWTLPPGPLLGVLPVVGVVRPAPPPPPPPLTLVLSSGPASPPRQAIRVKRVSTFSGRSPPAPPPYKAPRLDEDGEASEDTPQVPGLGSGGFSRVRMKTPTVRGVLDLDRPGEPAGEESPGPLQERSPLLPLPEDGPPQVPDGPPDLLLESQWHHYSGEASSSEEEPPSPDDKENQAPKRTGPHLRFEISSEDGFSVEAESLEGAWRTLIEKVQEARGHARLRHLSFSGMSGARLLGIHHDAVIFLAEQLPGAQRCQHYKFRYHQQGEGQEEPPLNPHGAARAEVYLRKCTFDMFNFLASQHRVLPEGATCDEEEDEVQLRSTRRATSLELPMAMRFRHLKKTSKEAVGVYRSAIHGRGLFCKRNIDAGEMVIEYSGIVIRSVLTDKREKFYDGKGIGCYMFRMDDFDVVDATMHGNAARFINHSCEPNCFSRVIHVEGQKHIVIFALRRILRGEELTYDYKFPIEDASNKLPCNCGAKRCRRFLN

[7] = molecular target: T1, Histone-lysine N-methyltransferase 2A; experiment: Inhibition of MLL1 (unknown origin) using histone peptide/SAM as substrate by HTRF assay
[8] = molecular target: Histone-lysine N-methyltransferase EHMT1 (Homo sapiens) (UniProt Q9H9B1); experiment: Inhibition of GLP (unknown origin) using histone peptide/SAM as substrate at 10 uM by AlphaLisa assay
[9] = Metabolic stability in human liver microsomes assessed as half life preincubated for 10 mins followed by NADPH addition measured upto 60 mins by LC-MS/MS analysis; assay type: ADME, Microsome; details: time < 70 min
KARPAS-422 [10] = experiment: Antiproliferative activity against human KARPAS-422 cells expressing EZH2 mutant assessed as inhibition of cell proliferation incubated for 6 days by CCK8 assay; assay type: functional, cell-based; details: time 6.0 day
[11] = molecular target: T5, Protein arginine N-methyltransferase 1 (Homo sapiens, UniProt Q99873); experiment: Inhibition of PRMT1 (unknown origin) using histone peptide/SAM as substrate by AlphaLisa assay
KARPAS-422 [12] = experiment: Antiproliferative activity against human KARPAS-422 cells expressing EZH2 Y641N mutant assessed as inhibition of cell proliferation incubated for 6 days by CCK8 assay; assay type: functional, cell-based; details: KARPAS-422, 144 h
Karpas-1106P = experiment: Antiproliferative activity against human KARPAS-1106P cells expressing wild-type EZH2 assessed as inhibition of cell proliferation incubated for 6 days by CCK8 assay; assay type: functional, cell-based; details: time 6.0 day
KARPAS-422 [13] = experiment: Downregulation of H2K27me3 level in human KARPAS-422 cells at 0.05 to 1 uM by Western blot analysis; assay type: functional, cell-based; details: dose 0.05-1 µM, time 48-96 hrs, TDE = time-dependent effect
Pfeiffer [14] = experiment: Antiproliferative activity against human Pfeiffer cells expressing EZH2 mutant assessed as inhibition of cell proliferation incubated for 6 days by CCK8 assay; assay type: functional, cell-based; details: time 6.0 day
[15] = Cmax in Sprague-Dawley rat at 10 mg/kg, po measured for 0.25 to 24 hrs by LC-MS/MS analysis; assay type: ADME, organism-based; set-up: time lower 0.25 hrs, dose 10 mg/kg, time upper 24 hrs, route po; details: in vivo
OPM-2 = experiment: Antiproliferative activity against human OPM-2 cells expressing wild-type EZH2 assessed as inhibition of cell proliferation incubated for 6 days by CCK8 assay; assay type: functional, cell-based; details: OPM-2, 144 h
[16] = Half life in Sprague-Dawley rat at 3 mg/kg, iv measured for 0.25 to 24 hrs by LC-MS/MS analysis; assay type: ADME, organism-based; details: in vivo, time 0.25-24 hrs
[17] = molecular target: Histone-arginine methyltransferase CARM1 (Homo sapiens) (UniProt Q86X55); experiment: Inhibition of PRMT4 (unknown origin) using histone peptide/SAM as substrate at 10 uM by AlphaLisa assay
U2932 = experiment: Antiproliferative activity against human U2932 cells expressing wild-type EZH2 assessed as inhibition of cell proliferation incubated for 6 days by CCK8 assay; assay type: functional, cell-based; details: U2932, 144 h
RL = experiment: Antiproliferative activity against human RL cells expressing EZH2 mutant assessed as inhibition of cell proliferation incubated for 6 days by CCK8 assay; assay type: functional, cell-based; details: time 6.0 day
[18] = molecular target: T5, Protein arginine N-methyltransferase 1; experiment: Inhibition of PRMT1 (unknown origin) using histone peptide/SAM as substrate at 10 uM by AlphaLisa assay
[19] = AUC (0 to last) in Sprague-Dawley rat at 3 mg/kg, iv measured for 0.25 to 24 hrs by LC-MS/MS analysis; assay type: ADME, organism-based; set-up: time 0.25-24 hrs, dose 3 mg/kg, route iv; details: in vivo
[20] = Apparent permeability in human Caco-2 cells at 20 uM measured for 35 to 95 mins by LC-MS/MS analysis; assay type: ADME, cell-based; details: time 35-95 min
[21] = Antiproliferative activity against human WILL-1 cells expressing wild-type EZH2 assessed as inhibition of cell proliferation incubated for 6 days by CCK8 assay; assay type: functional, cell-based; details: WILL-1, 144 h
Pfeiffer [22] = experiment: Antiproliferative activity against human Pfeiffer cells expressing EZH2 […] mutant assessed as inhibition of cell proliferation incubated for 6 days by CCK8 assay; assay type: functional, cell-based; details: 144 h
[23] = molecular target: Histone-lysine N-methyltransferase EHMT2 (Homo sapiens) (UniProt Q96KQ7); experiment: Inhibition of G9a (unknown origin) using histone peptide/SAM as substrate at 10 uM by AlphaLisa assay
[24] = molecular target: T6, DNA (cytosine-5)-methyltransferase 1 (Homo sapiens, UniProt P26358); experiment: Inhibition of DNMT1 (unknown origin) using histone peptide/SAM as substrate at 10 uM by AlphaLisa assay
T6 sequence (P26358 whole entry): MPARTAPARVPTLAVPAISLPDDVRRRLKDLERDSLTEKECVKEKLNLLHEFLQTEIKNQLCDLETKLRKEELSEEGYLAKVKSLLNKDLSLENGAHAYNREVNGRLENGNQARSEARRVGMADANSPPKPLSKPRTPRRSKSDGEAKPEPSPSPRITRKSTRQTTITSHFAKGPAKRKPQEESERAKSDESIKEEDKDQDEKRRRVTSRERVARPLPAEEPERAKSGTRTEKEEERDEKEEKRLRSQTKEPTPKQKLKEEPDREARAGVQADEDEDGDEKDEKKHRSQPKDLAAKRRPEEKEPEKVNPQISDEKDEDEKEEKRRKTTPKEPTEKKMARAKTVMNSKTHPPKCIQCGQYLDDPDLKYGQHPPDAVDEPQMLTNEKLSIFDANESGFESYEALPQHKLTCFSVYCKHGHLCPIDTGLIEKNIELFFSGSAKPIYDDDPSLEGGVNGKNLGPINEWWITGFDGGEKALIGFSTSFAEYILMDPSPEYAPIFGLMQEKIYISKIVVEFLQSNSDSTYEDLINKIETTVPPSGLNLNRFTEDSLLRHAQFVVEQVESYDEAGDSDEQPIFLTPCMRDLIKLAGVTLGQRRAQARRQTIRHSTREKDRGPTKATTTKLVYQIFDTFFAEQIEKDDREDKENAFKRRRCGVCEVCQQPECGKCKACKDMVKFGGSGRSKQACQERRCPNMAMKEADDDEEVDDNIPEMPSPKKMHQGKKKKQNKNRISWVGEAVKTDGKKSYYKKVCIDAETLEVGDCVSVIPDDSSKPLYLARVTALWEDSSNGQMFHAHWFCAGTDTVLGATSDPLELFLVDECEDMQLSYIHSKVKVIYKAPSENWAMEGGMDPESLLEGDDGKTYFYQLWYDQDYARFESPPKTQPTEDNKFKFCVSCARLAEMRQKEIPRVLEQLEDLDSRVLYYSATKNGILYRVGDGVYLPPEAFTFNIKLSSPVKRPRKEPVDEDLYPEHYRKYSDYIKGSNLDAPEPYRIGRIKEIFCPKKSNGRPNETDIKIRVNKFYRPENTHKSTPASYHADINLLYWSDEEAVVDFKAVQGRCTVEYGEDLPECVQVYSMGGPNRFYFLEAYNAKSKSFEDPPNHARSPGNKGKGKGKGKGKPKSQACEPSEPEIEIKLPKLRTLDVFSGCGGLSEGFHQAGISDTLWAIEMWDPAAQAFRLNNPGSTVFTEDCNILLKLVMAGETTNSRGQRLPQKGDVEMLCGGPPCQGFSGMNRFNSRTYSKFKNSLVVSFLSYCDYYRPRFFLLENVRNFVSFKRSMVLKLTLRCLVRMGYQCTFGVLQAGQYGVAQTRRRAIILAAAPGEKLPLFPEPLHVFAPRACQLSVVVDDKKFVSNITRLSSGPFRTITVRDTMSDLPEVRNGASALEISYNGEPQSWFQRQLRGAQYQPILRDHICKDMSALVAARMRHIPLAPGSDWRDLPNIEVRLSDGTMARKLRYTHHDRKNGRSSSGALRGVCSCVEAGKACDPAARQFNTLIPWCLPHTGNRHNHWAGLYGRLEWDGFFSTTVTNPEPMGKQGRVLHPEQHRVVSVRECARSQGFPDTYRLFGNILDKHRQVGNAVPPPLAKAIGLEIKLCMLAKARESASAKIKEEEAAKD

[25] = molecular target: T3, Protein arginine N-methyltransferase 5; experiment: Inhibition of PRMT5 (unknown origin) using histone peptide/SAM as substrate by AlphaLisa assay
[26] = molecular target: Histone-lysine N-methyltransferase NSD2 (Homo sapiens) (UniProt O96028); experiment: Inhibition of NSD2 (unknown origin) using histone peptide/SAM as substrate at 10 uM by AlphaLisa assay
Pfeiffer [27] = experiment: Effect on total H3 level in human Pfeiffer cells at 0.05 to 1 uM incubated for 48 to 96 hrs by Western blot analysis; assay type: functional, cell-based; details: dose 0.05-1 µM, time 48-96 hrs
[28] = Bioavailability in Sprague-Dawley rat at 10 mg/kg, po measured for 0.25 to 24 hrs by LC-MS/MS analysis; assay type: ADME, organism-based; details: in vivo, time 0.25-24 hrs
[29] = molecular target: Histone-lysine N-methyltransferase EHMT1 (Homo sapiens, UniProt Q9H9B1); experiment: Inhibition of GLP (unknown origin) using histone peptide/SAM as substrate by AlphaLisa assay
[30] = AUC (0 to last) in Sprague-Dawley rat at 10 mg/kg, po measured for 0.25 to 24 hrs by LC-MS/MS analysis; assay type: ADME, organism-based; set-up: dose 10 mg/kg, time upper 24 hrs, time lower 0.25 hrs, route po; details: in vivo
[31] = molecular target: T4, Histone-lysine N-methyltransferase 2B; experiment: Inhibition of MLL4 (unknown origin) using histone peptide/SAM as substrate by HTRF assay
[32] = molecular target: Histone-lysine N-methyltransferase NSD2 (Homo sapiens, UniProt O96028); experiment: Inhibition of NSD2 (unknown origin) using histone peptide/SAM as substrate by AlphaLisa assay
[33] = molecular target: Histone-arginine methyltransferase CARM1 (Homo sapiens, UniProt Q86X55); experiment: Inhibition of PRMT4 (unknown origin) using histone peptide/SAM as substrate by AlphaLisa assay
HT = experiment: Antiproliferative activity against human HT cells expressing wild-type EZH2 assessed as inhibition of cell proliferation incubated for 6 days by CCK8 assay; assay type: functional, cell-based; details: time 6.0 day
[34] = molecular target: T2, Histone-lysine N-methyltransferase, H3 lysine-36 specific; experiment: Inhibition of NSD1 (unknown origin) using histone peptide/SAM as substrate by AlphaLisa assay
Pfeiffer [35] = experiment: Downregulation of H2K27me3 level in human Pfeiffer cells at 0.05 to 1 uM by Western blot analysis; assay type: functional, cell-based; details: dose 0.05-1 µM, time 48-96 hrs, TDE = time-dependent effect
[36] = molecular target: T6, DNA (cytosine-5)-methyltransferase 1; experiment: Inhibition of DNMT1 (unknown origin) using histone peptide/SAM as substrate by AlphaLisa assay
Pfeiffer [37] = experiment: Downregulation of H3K27me3 level in human Pfeiffer cells at 1 uM incubated for 96 hrs followed by compound washout measured after 120 hrs by Western blot analysis; assay type: functional, cell-based; details: time 216.0 hrs
Pfeiffer [38] = experiment: Effect on EZH2 level in human Pfeiffer cells at 0.05 to 1 uM incubated for 48 to 96 hrs by Western blot analysis; assay type: functional, cell-based; details: dose 0.05-1 µM, time 48-96 hrs
SU-DHL10 = experiment: Antiproliferative activity against human SU-DHL-10 cells expressing EZH2 mutant assessed as inhibition of cell proliferation incubated for 6 days by CCK8 assay; assay type: functional, cell-based; details: time 6.0 day
DB = experiment: Antiproliferative activity against human DB cells expressing wild-type EZH2 assessed as inhibition of cell proliferation incubated for 6 days by CCK8 assay; assay type: functional, cell-based; details: 144 h
[39] = molecular target: Histone-lysine N-methyltransferase EHMT2 (Homo sapiens, UniProt Q96KQ7); experiment: Inhibition of G9a (unknown origin) using histone peptide/SAM as substrate by AlphaLisa assay

C=CC(=O)NCc1cc(C(=O)NCc2c(SC)cc(C)[nH]c2=O)c(C)c(N(CC)C2CCOCC2)c1
inhibition [1]: inactive | inhibition [2]: inactive | IC50 (WSUDLCL2): > 3 µM | inhibition [3]: inactive | IC50 (SU-DHL-2): > 3 µM | Activity (Pfeiffer [4]): Dose-Dependent Effect | Activity (KARPAS-422 [5]): Dose-Dependent Effect | inhibition [6]: inactive | IC50 [7]: > 10 µM | inhibition [8]: inactive | half-life [9]: 33.8 min | inhibition (KARPAS-422 [10]): Active | IC50 [11]: > 10 µM | IC50 (KARPAS-422 [12]): 0.064 µM | inhibition (Karpas-1106P): Active | Activity (KARPAS-422 [13]): Tde | inhibition (Pfeiffer [14]): Active | Cmax [15]: 29.5 ng/mL | IC50 (OPM-2): > 3 µM | t1/2 [16]: 16.8 min | inhibition [17]: inactive | IC50 (U2932): > 3 µM | inhibition (RL): Active | inhibition [18]: inactive | AUC(0-t) [19]: 4890 ng·h/mL | Papp at 20 µM [20]: 0.052 ×10⁻⁶ cm/s | IC50 [21]: > 3 µM | IC50 (Pfeiffer [22]): 0.022 µM | inhibition [23]: inactive | inhibition [24]: inactive | IC50 [25]: > 10 µM | inhibition [26]: inactive | Activity (Pfeiffer [27]): inactive | bioavailability [28]: 0.05% | IC50 [29]: > 10 µM | AUC(0-t) [30]: 8.16 ng·h/mL | IC50 [31]: > 10 µM | IC50 [32]: > 10 µM | IC50 [33]: > 10 µM | inhibition (HT): Active | IC50 [34]: > 10 µM | Activity (Pfeiffer [35]): Tde | IC50 [36]: > 10 µM | Activity (Pfeiffer [37]): Active | Activity (Pfeiffer [38]): inactive | inhibition (SU-DHL10): Active | IC50 (DB): > 3 µM | IC50 [39]: > 10 µM
